# Like-named read-outs stand apart in the source and are kept apart here.
# Legend:
# H1 receptor = biological target: T1, H1 receptor (Cavia porcellus, UniProt P31389); test: Histamine (H1) antagonism in guinea pig ileum; assay type: cell-based
# T1 construct: A piece of ileum, about 20 cm in length, is removed and cut into 2 cm pieces; from tissue; host or cells: ileum of male Hartley guinea pigs
# Procedure: Male Hartley guinea pigs, weighing 200-450 grams, are sacrificed by CO2 asphyxiation. A piece of ileum, about 20 cm in length, is removed and cut into 2 cm pieces. Each ileum piece is placed in an organ bath at 37° C. containing Tyrode's solution and is constantly aerated with 95% O2 /5%CO2. Tyrode's solution has the composition: NaCl 136.9 mM, KCl […], CaCl2 1.8 mM, NaH2 PO4 0.42 mM, NaHCO3 11.9 mM, and dextrose 5.55 mM. Contractions are measured with an isometric transducer (Grass FTO3C), and are recorded on a polygraph recorder and/or a computer. The ileum strips are loaded with 1.0 grams of tension and allowed to equilibrate for a minimum of 30 minutes before starting the experiments.
# The potency of the antagonism is determined by the magnitude of the shift and is expressed as a pA2 value which is the negative logarithm of the molar concentration of antagonist which produces a two-fold shift of the dose response curve to the right. The pA2 value is calculated by using Schild analysis. O. Arunlakshana and H. O. Schild, Br. J. Pharmacol Chemother. 14, 48-58 (1958).
# Table 1 presents pA2 values by the method of Example 93 which indicate potency of H1 receptor antagonism and IC50 values by the method of Example 95 which indicates NK1 receptor binding affinity for representative compounds of the present invention.
# NK1 receptor = biological target: T2, NK1 receptor (Cavia porcellus, UniProt P30547); test: Antagonism of iodinated tachykinin (substance P) binding to NK1 receptors in guinea pig lungs; details: read-out: NK1 Receptor Binding Affinity, IC50
# T2 construct: as evaluated in guinea pig lungs (Keystone Biologicals, Cleveland, Ohio); tissue Keystone Biologicals, Cleveland, Ohio; host or cells: guinea pig lung membranes
# Procedure: Antagonism of iodinated tachykinin binding to NK1 receptors by putative antagonists
# One skilled in the art can measure the NK1 receptor affinity of proposed tachykinin antagonists as evaluated in guinea pig lungs (Keystone Biologicals, Cleveland, Ohio). Tissues or cells are homogenized with a Polytron in 15 volumes of 50 mM Tris-HCl buffer (pH 7.4, […]) and centrifuged. The pellet is resuspended in Tris-HCl buffer and centrifuged; the pellet is washed twice by resuspension. The final pellet is resuspended at a concentration of 40 mg/ml incubation buffer and remains at room temperature for at least 15 min prior to use. […] Incubations are performed at room temperature for 90 min; binding is terminated by addition of 50 mM Tris-HCl buffer (pH 7.4, […]) and filtration under vacuum through GF/B filters presoaked with 0.1% polyethyleneimine. Filter bound radioactivity is quantitated in a gamma counter. […] IC50 values (concentration required to inhibit 50% of receptor binding) are generated for each of the test compounds by nonlinear regression using an iterative curve fitting program (GraphPAD Inplot, San Diego, Calif.).
# [1] = read-out: H1 Receptor Antagonism, pA2, in vitro (converted)
# T2 sequence (P30547 whole entry): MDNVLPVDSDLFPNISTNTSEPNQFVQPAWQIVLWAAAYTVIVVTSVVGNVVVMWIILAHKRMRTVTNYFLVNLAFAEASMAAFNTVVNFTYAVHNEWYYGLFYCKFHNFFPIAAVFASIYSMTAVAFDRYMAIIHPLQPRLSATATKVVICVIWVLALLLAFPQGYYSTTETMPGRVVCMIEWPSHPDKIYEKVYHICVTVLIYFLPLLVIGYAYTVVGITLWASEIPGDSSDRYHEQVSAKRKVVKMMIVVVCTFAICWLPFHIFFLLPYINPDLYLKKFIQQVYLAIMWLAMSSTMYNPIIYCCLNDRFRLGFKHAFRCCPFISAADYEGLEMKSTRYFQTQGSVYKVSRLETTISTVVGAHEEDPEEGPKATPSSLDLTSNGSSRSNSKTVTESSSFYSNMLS
# T1 sequence (P31389 whole entry): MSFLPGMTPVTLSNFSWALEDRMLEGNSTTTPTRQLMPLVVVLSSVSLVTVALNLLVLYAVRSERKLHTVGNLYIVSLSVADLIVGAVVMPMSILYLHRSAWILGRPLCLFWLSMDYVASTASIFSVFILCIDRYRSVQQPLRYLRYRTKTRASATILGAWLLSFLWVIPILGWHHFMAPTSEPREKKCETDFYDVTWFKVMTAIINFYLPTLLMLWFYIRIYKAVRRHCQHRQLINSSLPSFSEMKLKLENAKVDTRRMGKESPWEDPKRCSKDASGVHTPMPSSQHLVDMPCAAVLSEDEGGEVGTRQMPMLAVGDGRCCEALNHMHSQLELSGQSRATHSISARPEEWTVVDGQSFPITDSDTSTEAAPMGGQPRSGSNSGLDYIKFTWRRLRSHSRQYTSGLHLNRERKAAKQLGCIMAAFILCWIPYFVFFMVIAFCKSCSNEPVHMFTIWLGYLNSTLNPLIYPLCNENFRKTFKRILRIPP
SMILES,Kb (H1 receptor; [1]) [nM],IC50 (NK1 receptor) [nM],"IC50 (NK1 receptor; guinea pig lungs, 0.1 nM 125I-Bolton Hunter Lys-3 labeled substance P, room temperature 90 min, pH 7.4) [nM]",Kb (H1 receptor) [nM]
"COc1cc(CN2CCC(CCN3CCC(O)(c4nc5ccccc5n4Cc4ccc(F)cc4)CC3)(Cc3ccc(Cl)c(Cl)c3)C2=O)cc(OC)c1OC (stereo not drawn) [Example 54, 1-(3,4,5-Trimethoxy-benzvl)-3-[2-[4-[1-(4-fluoro-benzyl)-1H-benzoimidazol-2-yl]-4-hydroxy-piperidin-1-yl]-ethyl]-3-(3,4-dichloro-phenylmethyl)-2-oxo-pyrrolidine]",479,269,–,–
"COc1ccc(C(=O)N2CCC(CCN3CCC(C(=O)c4nc5ccccc5n4Cc4ccc(F)cc4)CC3)(c3ccc4c(c3)OCO4)C2)c(OC)c1OC (stereo not drawn) [Example 27, 1-(2,3,4-Trimethoxy-benzoyl)-3-[2-[4-[1-(4-fluoro-benzyl)-1 H-benzoimidazole-2-carbonyl]-piperidin-1-yl]-ethyl]-3-(benzo[1,3]dioxol-5-yl)-pyrrolidine]",20.9,370,–,–
"COc1ccc(C2(CCN3CCC(O)(c4nc5ccccc5n4Cc4ccc(F)cc4)CC3)CCN(C(=O)c3ccccc3)C2)cc1OC (stereo not drawn) [Example 3, 1-Benzoyl-3-[2-[4-[1-(4-fluoro-benzyl)-1 H-benzoimidazol-2-yl]-4-hydroxy-piperidin-1-yl]-ethyl]-3-(3,4-dimethoxy-phenyl)-pyrrolidine]",–,406,–,37.2
"CCOCCn1c(C2(O)CCN(CCC3(c4ccc(Cl)c(Cl)c4)CCN(C(=O)c4cc(OC)c(OC)c(OC)c4)C3)CC2)nc2ccccc21 (single isomer, unassigned; (+)) [Example 81, (+)-1-(3,4,5-Trimethoxy-benzoyl)-3-[2-[4-[1-(2-ethoxy-ethyl)-1H-benzoimidazole]-4-hydroxy-piperidin-1-yl]-ethyl]-3-(3,4-dichloro-phenyl)-pyrrolidine]",525,10,–,–
"COc1cc(CN2CCC(CCN3CCC(O)(c4nc5ccccc5n4Cc4ccc(F)cc4)CC3)(Cc3ccc(F)cc3F)C2=O)cc(OC)c1OC (stereo not drawn) [Example 58, 1-(3,4,5-Trimethoxy-benzyl)-3-[2-[4-[1-(4-fluoro-benzyl)-1H-benzoimidazol-2-yl]-4-hydroxy-piperidin-1-yl]-ethyl]-3-(2,4-difluoro-phenylmethyl)-2-oxo-pyrrolidine]",151,345,–,–
"COc1cc(C(=O)N2CCC(CCN3CCC(C(=O)c4nc5ccccc5n4Cc4ccc(F)cc4)CC3)(c3ccc4c(c3)OCO4)C2)cc(OC)c1OC (stereo not drawn) [Example 10, 1-(3,4,5-Trimethoxy-benzoyl)-3-[2-[4-[1-(4-fluoro-benzyl)-1 H-benzoimidazole-2-carbonyl]-piperidin-1-yl]-ethyl]-3-(benzo[1,3]dioxol-5-yl)-pyrrolidine]",60.3,–,146,–
"COc1cc(CN2CCC(CCN3CCC(O)(c4nc5ccccc5n4Cc4ccc(F)cc4)CC3)(Cc3ccccc3)C2=O)cc(OC)c1OC (stereo not drawn) [Example 53, 1-(3,4,5-Trimethoxy-benzyl)-3-[2-[4-[1-(4-fluoro-benzyl)-1H-benzoimidazol-2-yl]-4-hydroxy-piperidin-1-yl]-ethyl]-3-(phenylmethyl)-2-oxo-pyrrolidine]",204,191,–,–
"COc1cc(C(=O)N2CCC(CCN3CCC(C(=O)c4nc5ccccc5n4CCN4CCOCC4)CC3)(c3ccc(Cl)c(Cl)c3)C2)cc(OC)c1OC (stereo not drawn) [Example 32, 1-(3,4,5-Trimethoxy-benzoyl)-3-[2-[4-[1-(2-(morpholin-4-yl)-ethyl)-1 H-benzoimidazole-2-carbonyl]-piperidin-1-yl]-ethyl]-3-(3,4-dichlororphenyl)-pyrrolidine]",513,15,–,–

# The next lines start with results.
Kb (H1 receptor; [1]) [nM],IC50 (NK1 receptor) [nM],"IC50 (NK1 receptor; guinea pig lungs, 0.1 nM 125I-Bolton Hunter Lys-3 labeled substance P, room temperature 90 min, pH 7.4) [nM]",SMILES,Kb (H1 receptor) [nM]
25.1,17,–,"COc1cc(C(=O)N2CCC(CCN3CCC(C(=O)c4nc5ccccc5n4Cc4ccccn4)CC3)(c3ccccc3)C2)cc(OC)c1OC (stereo not drawn) [Example 37, 1-(3,4,5-Trimethoxy-benzoyl)-3-[2-[4-[1-(pyrid-2-ylmethyl)-1 H-benzoimidazole-2-carbonyl]-piperidin-1-yl]-ethyl]-3-phenyl-pyrrolidine]",–
63.1,13,–,"COc1cc(C(=O)N2CCC(CCN3CCC(C(=O)c4nc5ccccc5n4Cc4ccco4)CC3)(c3ccccc3)C2)cc(OC)c1OC (stereo not drawn) [Example 44, 1-(3,4,5-Trimethoxy-benzoyl)-3-[2-[4-[1-(fur-2-ylmethyl)-1 H-benzoimidazole-2-carbonyl]-piperidin-1-yl]-ethyl]-3-phenyl-pyrrolidine]",–
50.1,29,–,"COc1cc(C(=O)N2CCC(CCN3CCC(C(=O)c4nc5ccccc5n4Cc4ccc(F)cc4)CC3)(c3ccc(Cl)c(Cl)c3)C2)cc(OC)c1OC (single isomer, unassigned; (+)) [Example 14, (+)-1-(3,4,5-Trimethoxy-benzoyl)-3-[2-[4-[1-(4-fluoro-benzyl)-1 H-benzoimidazole-2-carbonyl]-piperidin-1-yl]-ethyl]-3-(3,4-dichloro-phenyl)-pyrrolidine]",–
891,29,–,"COc1cc(C(=O)N2CCC(CCN3CCC(C(=O)c4nc5ccccc5n4Cc4ccc(C(=O)O)cc4)CC3)(c3ccccc3)C2)cc(OC)c1OC (stereo not drawn) [Example 39, 1-(3,4,5-Trimethoxy-benzoyl)-3-[2-[4-[1-(4-carboxy-benzyl)-1 H-benzoimidazole-2-carbonyl]-piperidin-1-yl]-ethyl]-3-phenyl-pyrrolidine]",–
